Test results: patent publication US10759816B2, “Heterocyclic compounds as RSV inhibitors” (Enanta Pharmaceuticals, Inc., priority 2016, dated 2020)

The compounds below were run on genotype A, "Long" strain RSV (assay: RSV-A in vitro cytoprotection assay in HEp-2 cells (ATPlite readout of cell viability)). Settings: human respiratory syncytial virus, HEp-2.
Format: cell-based, Human respiratory syncytial virus
In short: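 Cytoprotection measured as ATP-based luminescence (ATPlite) after 4-day incubation of RSV Long-infected HEp-2 cells (8,000/well, 10% FBS DMEM) with 2-fold serial compound dilutions in duplicate. Identically treated virus-free plate gives cytotoxicity; EC50 calculated from viability.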
Work on O=C(Nc1ccccc1F)N[C@H]1N=C(c2ccccc2)c2ccccc2NC1=O [RSV-604, reference compound] yielded an EC50 of roughly 2.4 µM.

Same assay, conditions: human respiratory syncytial virus, HEp-2, HEp-2 cells, genotype A “Long” strain RSV, cytoprotection; read-out: Human RSV-A (“Long” strain) EC50
COc1ccc(Oc2cccc(C(=O)N3CCc4cc(C(=O)Nc5c(C)cccc5F)sc4-c4ccccc43)n2)nc1 [Example 408] gave an EC50 greater than 0.8 µM. O=C(NC1CC1)c1cc2c(s1)-c1ccccc1N(C(=O)c1cccc(-c3ccc(C4CC4)nc3)n1)CC2 [Example 77] gave an EC50 of 0.4 to 0.8 µM. Cc1cccc(F)c1NC(=O)c1cc2c(s1)-c1ccccc1N(C(=O)c1cccc(N3CCCN(S(=O)(=O)c4ccccc4)CC3)n1)CC2 [Example 386] gave an EC50 of less than 0.4 µM. Compound CCn1nccc1-c1cccc(C(=O)N2CCc3cc(C(=O)Nc4c(C)cccc4F)sc3-c3ccccc32)n1 [Example 238] has an EC50 of less than 0.4 µM. In the case of Cc1cccc(F)c1NC(=O)c1cc2c(s1)-c1ccccc1N(C(=O)c1cccc(-c3cn[nH]c3-c3ccccc3)n1)CC2 [Example 212], the EC50 is reported as less than 0.4 µM. Cc1cccc(F)c1NC(=O)c1cc2c(s1)-c1ccccc1N(C(=O)c1cccc(N3CCC[C@H]3C(C)C)n1)CC2 [Example 483] gave an EC50 of less than 0.4 µM. With Cc1cccc(F)c1NC(=O)c1cc2c(s1)-c1ccccc1N(C(=O)c1cccc(-c3cn(CCN(C)C)nc3C3CC3)n1)CC2 [Example 228] the EC50 was greater than 0.8 µM. O=C(NC1CC1)c1cc2c(s1)-c1ccccc1N(C(=O)c1csc(N3CCOCC3)n1)CC2 [Example 12] gave an EC50 of 0.4 to 0.8 µM. For O=C(NC1CC1)c1cc2c(s1)-c1ccccc1N(C(=O)c1cccc(-n3ccc4ccccc43)n1)CC2 [Example 112], the EC50 was greater than 0.8 µM. Work on Cc1cccc(F)c1NC(=O)c1cc2c(s1)-c1ccccc1N(C(=O)c1cccc(-c3cn(C(=O)OC(C)(C)C)c4c(Cl)cccc34)n1)CC2 [Example 250] yielded an EC50 of 0.4 to 0.8 µM. O=C(NC1CC1)c1ccc2c(c1)-c1ccccc1N(C(=O)c1cccc(N3CCCOCC3)n1)CC2 [Example 104] gave an EC50 greater than 0.8 µM. Cc1cccc(F)c1NC(=O)c1cc2c(s1)-c1ccccc1N(C(=O)c1cccc(N3CCC[C@@H]3C)n1)CC2 [Example 479] gave an EC50 of less than 0.4 µM. For O=C(NC1CC1)c1cc2c(s1)-c1ccccc1N(C(=O)c1cccc(C3=CCOCC3)n1)CC2 [Example 59], the EC50 was 0.4 to 0.8 µM. Work on O=C(N[C@@H]1CCOC1)c1cc2c(s1)-c1ccccc1N(C(=O)c1cccc(-c3c[nH]nc3C3CC3)n1)CC2 [Example 176] yielded an EC50 of less than 0.4 µM. Cc1cccc(F)c1NC(=O)c1cc2c(s1)-c1ccccc1N(C(=O)c1cccc(-n3cnnc3C3CC3)n1)CC2 [Example 145] was tested, and the EC50 was greater than 0.8 µM. Cc1cccc(F)c1NC(=O)c1cc2c(s1)-c1ccccc1N(C(=O)c1cccc(-c3cnn(S(=O)(=O)C4CC4)c3C3CC3)n1)CC2 [Example 222] was tested, and the EC50 was 0.4 to 0.8 µM. Cc1cccc(F)c1NC(=O)c1cc2c(s1)-c1ccccc1N(C(=O)c1cccc(-c3ccc4ncccc4c3)n1)CC2 [Example 188] showed an EC50 of less than 0.4 µM. For Cc1cccc(F)c1NC(=O)c1cc2c(s1)-c1ccccc1N(C(=O)c1cccc(N(C[C@H]3CCCO3)C3CCC3)n1)CC2 [Example 481], the EC50 was less than 0.4 µM. Compound COc1ccc2c(c1)S(=O)(=O)CCN(c1cccc(C(=O)N3CCc4cc(C(=O)Nc5c(C)cccc5F)sc4-c4ccccc43)n1)C2 [Example 437] has an EC50 of less than 0.4 µM. In the case of Cc1cccc(F)c1NC(=O)c1cc2c(s1)-c1ccccc1N(C(=O)c1cccc(-c3coc4ccncc34)n1)CC2 [Example 258], the EC50 is reported as greater than 0.8 µM. With O=C(NC1CC1)c1cc2c(s1)-c1ccccc1N(C(=O)c1cccc(-c3cnc(N4CCOCC4)s3)n1)CC2 [Example 161] the EC50 was 0.4 to 0.8 µM. For Cc1cccc(F)c1NC(=O)c1cc2c(s1)-c1ccccc1N(C(=O)c1cccc(-c3cn(C(=O)OC(C)(C)C)c4c(C)cccc34)n1)CC2 [Example 252], the EC50 was greater than 0.8 µM. For Cc1cccc(F)c1NC(=O)c1cc2c(s1)-c1ccccc1N(C(=O)c1cccc(N3CCCC(C)(O)CC3)n1)CC2 (stereo not shown) [Example 444], the EC50 was less than 0.4 µM. Compound CCOC(=O)n1cc(-c2cccc(C(=O)N3CCc4cc(C(=O)Nc5c(C)cccc5F)sc4-c4ccccc43)n2)c(C2CC2)n1 [Example 224] has an EC50 of less than 0.4 µM. Cc1cccc(F)c1NC(=O)c1cc2c(s1)-c1ccccc1N(C(=O)c1cccc(N3CCN(C4CC4)S(=O)(=O)CC3)n1)CC2 [Example 448] was tested, and the EC50 was less than 0.4 µM. CNC(=O)CCN(C)c1cccc(C(=O)N2CCc3cc(C(=O)Nc4c(C)cccc4F)sc3-c3ccccc32)n1 [Example 324] was tested, and the EC50 was 0.4 to 0.8 µM. Cc1cccc(F)c1NC(=O)c1cc2c(s1)-c1ccccc1N(C(=O)c1cccc(-c3cn(CS(C)(=O)=O)nc3C3CC3)n1)CC2 [Example 231] gave an EC50 greater than 0.8 µM. Compound O=C(NC1CC1)c1cc2c(s1)-c1ccccc1N(C(=O)c1cccc(-c3nncn3C3CCOCC3)n1)CC2 [Example 124] has an EC50 greater than 0.8 µM. CN(Cc1ccccn1)c1cccc(C(=O)N2CCc3cc(C(=O)NC4CC4)sc3-c3ccccc32)n1 [Example 286] showed an EC50 greater than 0.8 µM. Cc1cccc(F)c1NC(=O)c1cc2c(s1)-c1ccccc1N(C(=O)c1cccc(N3CCCN(S(=O)(=O)C4(C)CC4)CC3)n1)CC2 [Example 383] showed an EC50 of less than 0.4 µM. Compound Cc1cccc(F)c1NC(=O)c1cc2c(s1)-c1ccccc1N(C(=O)c1cccc(-c3cnn(CCN(C)C)c3C3CC3)n1)CC2 [Example 229] has an EC50 greater than 0.8 µM. In the case of Cc1cccc(F)c1NC(=O)c1cc2c(s1)-c1ccccc1N(C(=O)c1cccc(N3CCS(=O)(=O)c4ccccc4[C@@H]3C)n1)CC2 [Example 434], the EC50 is reported as greater than 0.8 µM. Cc1cccc(F)c1NC(=O)c1cc2c(s1)-c1ccccc1N(C(=O)c1cccc(N3CCC[C@H](N)C3=O)n1)CC2 [Example 478] was tested, and the EC50 was greater than 0.8 µM. In the case of Cc1cccc(F)c1NC(=O)c1cc2c(s1)-c1ccccc1N(C(=O)c1cccc(-c3c[nH]c4ccc(Cl)cc34)n1)CC2 [Example 249], the EC50 is reported as less than 0.4 µM. For Cc1cccc(F)c1NC(=O)c1cc2c(s1)-c1ccccc1N(C(=O)c1cccc(-c3cn(C(=O)OC(C)C)nc3C3CC3)n1)CC2 [Example 223], the EC50 was less than 0.4 µM. For O=C(NC1CC1)c1cc2c(s1)-c1ccccc1N(C(=O)c1cccc(NC3CCOCC3)n1)CC2 [Example 61], the EC50 was greater than 0.8 µM. For COc1ccc(-c2cccc(C(=O)N3CCc4cnc(NC(=O)C5CC5)nc4-c4ccccc43)n2)cn1 [Example 110], the EC50 was greater than 0.8 µM. In the case of COC(=O)n1cc(-c2ccc(C(=O)N3CCc4cc(C(=O)Nc5c(C)cccc5F)sc4-c4ccccc43)cc2)c2cccnc21 [Example 267], the EC50 is reported as greater than 0.8 µM. Cc1cc(-c2ccc(C(=O)N3CCc4cc(C(=O)Nc5c(C)cccc5F)sc4-c4ccccc43)cc2)n[nH]1 [Example 270] showed an EC50 greater than 0.8 µM. Compound Cc1cccc(F)c1NC(=O)c1cc2c(s1)-c1ccccc1N(C(=O)c1cccc(-n3cnc(C4CC4)c3)n1)CC2 [Example 149] has an EC50 of less than 0.4 µM. In the case of Cn1ccc(-c2cccc(C(=O)N3CCc4cc(C(=O)Nc5ccccc5N)sc4-c4ccccc43)n2)n1 [Example 240], the EC50 is reported as greater than 0.8 µM. With Cc1cccc(F)c1NC(=O)c1cc2c(s1)-c1ccccc1N(C(=O)c1cccc(N3CCOc4ccccc4C3C)n1)CC2 (stereo not shown) [Example 364] the EC50 was greater than 0.8 µM. Work on COc1ccccc1CN(C)c1cccc(C(=O)N2CCc3cc(C(=O)Nc4c(C)cccc4F)sc3-c3ccccc32)n1 [Example 341] yielded an EC50 of less than 0.4 µM. Compound O=C(NC1CC1)c1cc2c(s1)-c1ccccc1N(C(=O)c1ccc(NC(=O)N3CCOCC3c3ccccc3)cc1)CC2 (stereo not shown) [Example 15] has an EC50 greater than 0.8 µM. Cc1cccc(F)c1NC(=O)c1cc2c(s1)-c1ccccc1N(C(=O)c1cccc(N3CCOc4ccccc4C3)n1)CC2 [Example 363] gave an EC50 of less than 0.4 µM. Cn1ccnc1NC(=O)c1cc2c(s1)-c1ccccc1N(C(=O)c1cccc(N3CCOc4ccccc4C3)n1)CC2 [Example 302] was tested, and the EC50 was greater than 0.8 µM. Cc1cccc(F)c1NC(=O)c1cc2c(s1)-c1ccccc1N(C(=O)c1cccc(-c3cnn(Cc4ccccc4)c3-c3ccccn3)n1)CC2 [Example 232] showed an EC50 greater than 0.8 µM. In the case of COCC(Nc1cccc(C(=O)N2CCc3cc(C(=O)Nc4c(C)cccc4F)sc3-c3ccccc32)n1)C1CC1 (stereo not shown) [Example 420], the EC50 is reported as 0.4 to 0.8 µM. In the case of Cc1cccc(F)c1NC(=O)c1cc2c(s1)-c1ccccc1N(C(=O)c1cccc(-c3cnn4ccccc34)n1)CC2 [Example 244], the EC50 is reported as less than 0.4 µM. COC1CCN(c2cccc(C(=O)N3CCc4cc(C(=O)NC5CC5)sc4-c4ccccc43)n2)CC1 [Example 21] showed an EC50 of 0.4 to 0.8 µM. Cc1cccc(F)c1NC(=O)c1cc2c(s1)-c1ccccc1N(C(=O)c1cccc(N3CCOc4cccc(Br)c4C3)n1)CC2 [Example 369] showed an EC50 of 0.4 to 0.8 µM. N[C@@H]1CCN(c2cccc(C(=O)N3CCc4cc(C(=O)NC5CC5)sc4-c4ccccc43)n2)C1 [Example 38] was tested, and the EC50 was greater than 0.8 µM. With O=C(NC1CC1)c1cc2c(s1)-c1ccccc1N(C(=O)c1cccc(N3CCOc4ccc(F)cc4C3)n1)CC2 [Example 278] the EC50 was less than 0.4 µM. Work on Cc1cc(-c2cccc(C(=O)N3CCc4cc(C(=O)Nc5ccccc5N)sc4-c4ccccc43)n2)n(C)n1 [Example 239] yielded an EC50 greater than 0.8 µM. For Cc1cccc(F)c1NC(=O)c1cc2c(s1)-c1ccccc1N(C(=O)c1cccc(N(C)Cc3ccccn3)n1)CC2 [Example 337], the EC50 was less than 0.4 µM. Cc1cccc(F)c1NC(=O)c1cc2c(s1)-c1ccccc1N(C(=O)c1cccc(N(C)Cc3cccc4ccccc34)n1)CC2 [Example 353] showed an EC50 greater than 0.8 µM. In the case of Cc1cccc(F)c1NC(=O)c1cc2c(s1)-c1ccccc1N(C(=O)c1cccc(N3CC4CC5CC(C4)CC3C5)n1)CC2 [Example 442], the EC50 is reported as greater than 0.8 µM. COc1ccccc1CN(c1cccc(C(=O)N2CCc3cc(C(=O)Nc4c(C)cccc4F)sc3-c3ccccc32)n1)C1CC1 [Example 342] showed an EC50 of 0.4 to 0.8 µM. Compound Cc1cnc(N2CC3(CCOCC3)C2)c(NC(=O)c2ccc(C(=O)N3CCc4cc(C(=O)Nc5c(C)cccc5F)sc4-c4ccccc43)cc2)c1 [Example 142] has an EC50 of less than 0.4 µM. For O=C(Nc1cc2c(s1)-c1ccccc1N(C(=O)c1cccc(N3CCOc4ccccc4C3)n1)CC2)NC1CC1 [Example 312], the EC50 was greater than 0.8 µM. In the case of Cc1cccc(F)c1NC(=O)c1cc2c(s1)-c1ccccc1N(C(=O)c1cccc(N3Cc4ccccc4OC(C)(C)C3)n1)CC2 [Example 332], the EC50 is reported as less than 0.4 µM. With O=C(NC1CC1)c1cc2c(s1)-c1ccccc1N(C(=O)c1cccc(-c3cnn(C4CCOCC4)c3)n1)CC2 [Example 76] the EC50 was 0.4 to 0.8 µM. O=C(NC1CC1)c1cc2c(s1)-c1ccccc1N(C(=O)c1cccc(N3CCOc4ccccc4C3=O)n1)CC2 [Example 414] showed an EC50 greater than 0.8 µM.
